Results: patent US20250263457A1, “Pharmaceutical Composition for Preventing and Treating Liver Disease Comprising Novel Peptide” (Pusan National University Industry-University Cooperation …, priority 2024, published 2025)

What was measured:
[1] = tested on: CD44; assay: Immunofluorescence of CD44ICD and α-SMA in human pHSCs; format: cell-based; conditions: 40 ng/ml, immunofluorescence (FIG. 3B)
Description: The cleavage of CD44 and the expression of the activation marker of pHSCs by peptide YJ treatment were confirmed through immunofluorescence. At this time, human pHSCs treated with PBS were used as a control group.
Specifically, human pHSCs (5×10^4 cells/ml) were seeded on coverslips and then cultured overnight. The cells were treated with peptide YJ at a concentration of 40 ng/ml and further cultured for 6, 12, and 24 hours, respectively. The cells were fixed and permeabilized by treating each cell with 4% paraformaldehyde and 0.01% Triton X-100. To inhibit non-specific binding of antibodies, blocking (Dako, X9090) was performed, and then the primary antibodies were treated and reacted overnight at 4° C. At this time, the primary antibodies used were anti-CD44ICD antibody (Cosmo Bio, KAL-KO601) and α-SMA (Sigma-Aldrich, A5228). Thereafter, the cells were washed with TBS, treated with a secondary antibody, and reacted at room temperature for 30 minutes. The secondary antibody used were Alexa Fluor 488-conjugated chicken anti-mouse IgG antibody (Invitrogen, A21200) or Alexa Fluor 568-conjugated goat anti-rabbit IgG antibody (Invitrogen, A10042). The cells were washed with TBS, and then treated with 4′,6-diamidino-2-phenylinole (DAPI, VECTASHIELD, H-1200-10) to perform nuclear staining. Finally, the coverslip was fixed on a slide glass using a mounting solution and then observed with a confocal microscope DMi8-S (Leica Microsystems) or CLSM21 (Carl Zeiss Inc.).

[2] = tested on: human pHSCs; assay: RT-qPCR and Western blot of fibrosis/activation markers in human pHSCs; format: cell-based; conditions: 40 ng/ml, 24 and 48 hours, vs control (FIGS. 3C, 3D)
Description: In addition, after pHSCs were treated with peptide YJ for 24 and 48 hours by the same method as above, respectively, RNA and protein were extracted (whole lysate) and the expression of pHSCs activation markers was confirmed through RT-qPCR (FIG. 3C) and Western blot (FIG. 3D). Western blot was performed using the same method as in Example 2, and RNA extraction and RT-qPCR were performed as follows. At this time, human pHSCs treated with PBS were used as a control group.
First, total RNA was extracted from each cell using a Trizol solution (Invitrogen, 15596-026), and then the concentration and purity of RNA were confirmed using a nanodrop. Thereafter, complementary DNA (cDNA) was synthesized using the RNA as a template using the SuperScript First-strand Synthesis System (Invitrogen, 18064014). The cDNA synthesized by the method was used as sample DNA in quantitative real-time PCR (qPCR).
The quantitative real-time PCR (qPCR) was performed using Power SYBR Green Master Mix (Applied Biosystem), and the results were analyzed by a […] method. The qPCR results were analyzed for significance using Mean±SEM values of three independent experiments through one-way ANOVA followed by post hoc Tukey's test.

[3] = tested on: alcohol-related liver disease mouse model; assay: Triglyceride accumulation in liver tissue of alcohol-related liver disease mouse model; format: in vivo, C57BL/6 male mice; conditions: 3.3 μg/kg i.p. every other day for three weeks
From the text: (§1) To prepare alcohol-related liver disease mice, 8-week-old C57BL/6 male mice were fed with a Lieber DeCarli liquid diet (Dyets, 710260) containing 5% EtOH for 9 weeks, and then injected intraperitoneally with a vehicle (PBS) every other day along with feeding liquid diet for additional 3 weeks. As a control group for the EtOH diet, mice fed with a pair Lieber DeCarli liquid diet (Dyets, 710027) having the same total calories as the EtOH diet were used (FIG. 4A).
Triglycerides in the liver tissue obtained by the method of Example 5.2 were measured using the following method.
In addition, the accumulation of triglycerides in the liver tissue was confirmed using Oil red O staining.
Specifically, the liver tissue extracted from the mice was embedded in OCT and frozen-stored at −80° C. The liver tissue embedded in OCT was cut into 6 μm-thick sections to produce tissue section slides and then fixed by treating 4% paraformaldehyde. The tissue section slides were washed with distilled water and treated with 100% propylene glycol ([…], Sigma-Aldrich), and triglycerides were stained with Oil Red O (Sigma-Aldrich). After staining, the section slides were washed with 60% PEG, and the nuclei were counterstained with hematoxylin. The liver tissue section slides produced as described above were observed under a microscope to confirm the accumulation of triglycerides in the liver tissue. […]

[4] = tested on: alcohol-related liver disease mouse model; assay: Fibrosis markers and collagen accumulation in liver tissue of mouse model; format: in vivo, C57BL/6 male mice; conditions: 3.3 μg/kg i.p. every other day for three weeks, EtOH diet group, vs vehicle
From the text: as §1
In most chronic liver diseases, severe inflammatory responses were accompanied by fibrosis. Accordingly, the degree of fibrosis in the liver tissue of the alcohol-related liver disease mouse model established by the method of Example 5.1 in the present disclosure was confirmed through the expression of fibrosis markers using RT-qPCR and Western blot. In addition, the accumulation of collagen in the liver tissue and the expression of α-SMA were confirmed. In addition, the concentration of collagen in the liver tissue was confirmed through Sirius red staining, and the expression of α-SMA was confirmed through immunohistochemical staining. At this time, RT-qPCR and Western blot were performed in the same manner as in Example 2, and immunohistochemical staining (IHC) was performed in the same manner as in Example 5.2.3. In IHC, an anti-α-SMA antibody was used as the primary antibody.
After deparaffinization and hydration of the liver tissue section slides prepared in the same manner as in Example 5.2.3, the section slides were treated with 0.1% Sirius red F3B (Sigma-Aldrich) and 0.1% Fast Green (Sigma-Aldrich) solutions containing saturated picric acid (Sigma-Aldrich) and reacted for 20 minutes. After the staining reaction was completed, the section slides were dehydrated, mounted, and observed under a microscope. […] In addition, it was confirmed that the expression of α-SMA in the liver tissue in the EtOH diet group increased compared to the control group (pair) (FIG. 5D).
The alcohol-related liver disease mouse model established by the method of Example 5.1 was administered vehicle (PBS) or peptide YJ (3.3 μg/kg) intraperitoneally every other day for three weeks, and then blood was collected and liver tissue was extracted to confirm the liver disease treatment effect of peptide YJ.
The degree of fibrosis in the liver tissue extracted from the experimental mice of Example 5.3 was confirmed in the same manner as in Example 5.2.4.

[5] = RT-qPCR, Western blot (FIGS. 7A, 7B)

For “peptide YJ: TSG-6 fragment: core domain RSGKYKLTYAEAKA plus C-terminal extension VCEFEGGHLATYKQLEAARKIGFHVCAAGWMAK (SEQ ID NO: 9); TSG-6 mimetic (RSGKYKLTYAEAKAVCEFEGGHLATYKQLEAARKIGFHVCAAGWMAK; peptide 4)”, the “expression of CD44ICD in the nucleus” value ([1]; 12 hours) was “decreased”, the “expression of α-SMA” value ([1]; 12 hours) was “decreased” and the “expression of CD44ICD in the nucleus” value ([1]; 24 hours) was “no expression of CD44ICD in the nucleus was observed”. For the same substance, the “expression of α-SMA” value ([1]; 24 hours) was “significantly decreased”, the “expression of COL1α1” value ([2]; RT-qPCR and Western blot) was “decreased” and the “expression of CTGF” value ([2]; RT-qPCR and Western blot) was “decreased”. The “expression of TGF-β” value ([2]; RT-qPCR and Western blot) was “decreased”, the “expression of TIMP1” value ([2]; RT-qPCR and Western blot) was “decreased” and the “expression of α-SMA” value ([2]; RT-qPCR and Western blot) was “decreased”. For the same substance, the “expression of GFAP (inactivation marker of pHSCs)” value [2] was “increased”, the “amount of triglycerides in the liver tissue” value ([3]; EtOH diet group, vs vehicle (FIG. 6D)) was “significantly reduced” and the “size and number of lipid droplet in the liver tissue” value ([3]; H&E staining (FIG. 6E)) was “significantly reduced”. The “mRNA and protein expression of collagen1α1 in the liver tissue” value [4, 5] was “significantly reduced”, the “mRNA and protein expression of vimentin in the liver tissue” value [4, 5] was “significantly reduced” and the “mRNA and protein expression of α-SMA in the liver tissue” value [4, 5] was “significantly reduced”. For the same substance, the “collagen accumulation in the liver tissue” value ([4]; hydroxyproline assay, Sirius red staining, IHC (α-SMA) (FIGS. 7C, 7D)) was “significantly reduced”.
